# Measurements from patent US20230241071A1, “COMBINATION TREATMENT OF LIVER DISORDERS” (Terns Pharmaceuticals, Inc., priority 2021, published 2023).
# “And” between values parts separate entries of the source, which are not always exact repeats. Identical values can stand only once. “Also recorded” adds a separate entry of the source.
# Assays:
# [1] = tested on: DIO-GAN NASH mouse model; test: Biopsy-confirmed DIO-GAN NASH mice, 12 weeks mono- and combination treatment; type: in vivo; details: for hepatomegaly (liver weight) / spleen weight / total cholesterol (plasma): vs DIO-GAN vehicle control; for plasma triglycerides: Compound 2-high 10 mg/kg, combinations; for α-SMA (IHC), marker of hepatic stellate cell activation: Compound 3, Compound 2-low and -med, Combo-low
# From the text: C57BL/6JRj male mice (n=138) were fed the Gubra Amylin NASH (GAN) diet (40% fat, 22% fructose, 2% cholesterol [D09100310, Research Diets]) or lean chow diet for 35 weeks before treatment start. Prior to treatment all animals underwent liver biopsy for histological confirmation (steatosis score ≥2 and fibrosis stage ≥1) and stratification using the nonalcoholic fatty liver disease (NAFLD) activity scoring (NAS) and fibrosis staging system. The diet-induced obese mice on GAN diet (DIO-GAN) were randomized to 8 treatment groups […] based on percent-area of picrosirius red (PSR) staining. DIO-GAN mice (n=16 per group) received treatment (PO, QD) for 12 weeks with vehicle (0.5% HPMC+0.2% Tween-80 in Tris buffer [50 mM, pH 8]), Compound 3 (10 mg/kg), Compound 2 (0.3 mg/kg [low], 2 mg/kg [med], or 10 mg/kg [high]), or combination treatments of Compound 3 with Compound 2 (Combo-low, Combo-med or Combo-high). Vehicle-dosed lean chow-fed controls served as healthy controls (n=10). Mice were maintained on their respective diets (GAN or lean chow) for the duration of the study. Within-subject comparisons (pre- vs. post-treatment) were performed for liver biopsy histopathological scores. Terminal quantitative endpoints included plasma/liver biochemistry, liver histomorphometry, and liver transcriptomic analysis by RNAseq.
# Formalin-fixed paraffin-embedded (FFPE) liver biopsies were prepared by placing liver samples into 10% neutral buffered formalin for ˜24 hours and then transferred to 70% ethanol prior to storage at 4 C. FFPE were placed in the Histokinette to infiltrate prior to embedding in blocks. Biopsy tissues were then cut at 3 μm using a microtome and sections were mounted on slides. Liver sections were stained with Hematoxylin and Eosin (H&E) to assess steatosis, inflammation, and ballooning, and PSR to assess fibrosis. Additionally, slides were processed to detect type I collagen (Col1a1), galectin-3 (Gal-3), and smooth muscle actin (α-SMA) protein expression by immunohistochemistry (IHC). For H&E staining, slides were incubated in Mayer's Hematoxylin (Dako), washed with tap water, stained in Eosin Y solution (Sigma-Aldrich), dehydrated, and coverslipped. For PSR, slides were incubated in Weigert's iron hematoxylin (Sigma-Aldrich), washed in tap water, stained in Picro-sirius red (Sigma-Aldrich), and washed twice in acidified water. Excess water was removed by shaking the slides and the slides were then dehydrated with ethanol, cleared in xylene, and cover-slipped. The NAS and fibrosis stage were scored as described previously (Kleiner et al. 2005). NAS represents the unweighted sum of steatosis, inflammation, and ballooning scores and ranges for 0-8 (Table 26); fibrosis stage ranges from 0 (no fibrosis) to 4 (cirrhosis). For detection of Col1a1, Gal-3 and α-SMA, IHC was performed by standard procedures. Briefly, after antigen retrieval and blocking of endogenous peroxidase activity, slides were incubated with primary antibody (Col1a1: Southern Biotech, Cat. 1310-01; Gal-3: Biolegend, Cat. 125402; α-SMA: Abcam Cat. Ab124964). Primary antibody was detected using a polymeric HRP-linker antibody conjugate. Primary antibody was visualized with DAB as chromogen. Finally, sections were counterstained in hematoxylin and cover-slipped.
# Terminal blood was harvested by cardiac puncture from mice anesthetized with isoflurane (2-3%), mixed with anticoagulant, and placed at 4 C prior to centrifugation at 3000×g for 10 minutes. Plasma supernatants were transferred to new tubes and immediately frozen on dry ice and stored at −80 C. Alanine transaminase (ALT), Aspartate transaminase (AST), Alkaline phosphatase (ALP), Triglycerides (TGs), Total Cholesterol (TC), High-density lipoprotein (HDL-c), and Low-density lipoprotein (LDL-c) were measured using commercial kits (Roche Diagnostics) on the Cobas c 501 autoanalyzer according to manufacturer's instructions. […]
# [2] = Trough plasma compound levels in DIO-GAN mice; type: in vivo, mouse; details: plasma 21-24 h post final dose
# Procedure: Terminal plasma samples were harvested by cardiac puncture approximately 21-24 hours after the last administration of compound(s). Terminal plasma samples were analyzed by high resolution LC-MS/MS using a Triple Quad 6500+ instrument. 20 μL of plasma sample was mixed with 200 μL of internal standard solution (100 ng/mL Labetalol+100 ng/mL Tolbutamide in acetonitrile), vortexed, and centrifuged at 4,000 rpm for 15 min at 4° C. […] The internal standard 1 (retention time: 0.87 min) and standard 2 (retention time: 0.96 min) were used for quantification of Compound 3 (retention time: 0.87 min) and Compound 2 (retention time: 0.97 min), respectively. The internal standard (retention time: 0.76 min), was used for quantification of the glucuronide metabolite of Compound 3 (retention time: 0.77 min). Calibration curves (1-3000 ng/mL) were generated in a matrix of mouse plasma (pooled vehicle control) for each analyte.
# [3] = 12 wk PO QD, Compound 3 10 mg/kg
# [4] = 12 wk PO QD, single agent 10 mg/kg
# [5] = group Combo-high, Compound 3 10 mg/kg + Compound 2 10 mg/kg (14)
# [6] = group Combo-med, Compound 3 10 mg/kg + Compound 2 2 mg/kg (16)
# [7] = 12 wk PO QD, high: Compound 2 10 mg/kg, alone or (Combo) + Compound 3 10 mg/kg
# [8] = 12 wk PO QD, high: Compound 2 10 mg/kg, alone or (Combo) + Compound 3 10 mg/kg, 10 mg/kg
# [9] = 12 wk PO QD, low: Compound 2 0.3 mg/kg, alone or (Combo) + Compound 3 10 mg/kg
# [10] = 12 wk PO QD, med: Compound 2 2 mg/kg, alone or (Combo) + Compound 3 10 mg/kg
smiles,measurement,setting,value
Cn1cc(C(=O)O)c2ccc(N3CCC(OCc4c(-c5c(Cl)cccc5Cl)noc4C4CC4)CC3)cc21 [Compound 3],Gal-3 expression in the liver (IHC) relative to DIO-GAN vehicle control,[1]; 12 wk PO QD,reduces expression of Galectin-3; also recorded: lower levels of Gal-3 expression
same,body weight during the study,[1]; 12 wk PO QD,reduced body weight; also recorded: decreased body weight
same,hepatomegaly (liver weight),[1]; 12 wk PO QD,significantly reduced hepatomegaly
same,spleen weight,[1]; 12 wk PO QD,without changes in spleen weight
same,total cholesterol (plasma),[1]; 12 wk PO QD,significantly reduced total cholesterol
same,Histological steatosis score: mice improving 1-pt,[1]; [3],81.25%
same,Histological steatosis score: mice improving >2-pt,[1]; [3],0%
same,Histological steatosis score: mice with no change,[1]; [3],18.75%
same,Liver fibrosis stage: mice improving,[1]; [3],6.25%
same,Liver fibrosis stage: mice with no change,[1]; [3],56.25%
same,Liver fibrosis stage: mice worsening,[1]; [3],37.5%
same,Lobular inflammation: mice improving,[1]; [3],0%
same,Lobular inflammation: mice with no change,[1]; [3],68.75%
same,Lobular inflammation: mice worsening,[1]; [3],31.25%
same,plasma triglycerides,[1]; [3],significantly reduced plasma triglycerides
same,"Histological steatosis score: mice improving, Total (at least 1-pt)","[1]; 12 wk PO QD, Compound 3 10 mg/kg, 10 mg/kg",81% and 81.25%
same,body weight at the end of study vs DIO-GAN vehicle control,"[1]; 12 wk PO QD, Compound 3 10 mg/kg, Combo = + Compound 2 0.3/2/10 mg/kg",significantly lower
same,"α-SMA (IHC), marker of hepatic stellate cell activation",[1]; 12 wk PO QD,Numeric reductions
same,NAS: mice improving ≥2-pt,[1]; [4],0%
same,"NAS: mice improving, Total (≥1-pt)",[1]; [4],56%
same,fat tissue mass (EchoMRI),[1]; Week 11,significantly reduced fat tissue mass; also recorded: reduced levels of fat tissue
same,Scd1 expression,[1]; liver RNAseq,reduced
same,"expression of Col1a1, Acta2, Lgals3, CD146 relative to DIO-GAN vehicle control",[1]; liver RNAseq,significantly reduced expression
same,Mean trough analyte concentration (SD),[2]; [5],3.3 (1.8) ng/mL
same,Mean trough analyte concentration (SD),[2]; [6],5.8 (3.5) ng/mL
same,Mean trough analyte concentration (SD),[2]; group Compound 3 10 mg/kg (16),7.4 (3.8) ng/mL
"N#Cc1nn(-c2cc(Cl)c(Oc3n[nH]c(=O)c4ccccc34)c(Cl)c2)c(=O)[nH]c1=O [Compound 2, 2-(3,5-dichloro-4-((4-oxo-3,4-dihydrophthalazin-1-yl)oxy)phenyl)-3,5-dioxo-2,3,4,5-tetrahydro-1,2,4-triazine-6-carbonitrile]",hepatomegaly (liver weight),[1]; 12 wk PO QD,significantly reduced hepatomegaly
same,spleen weight,[1]; 12 wk PO QD,without changes in spleen weight
same,total cholesterol (plasma),[1]; 12 wk PO QD,significantly reduced total cholesterol
same,ALT levels relative to DIO-GAN vehicle control,"[1]; 12 wk PO QD, Compound 2 low, med, and high",significantly reduced; also recorded: significantly lowered ALT levels
same,plasma triglycerides,[1]; [3],significantly reduced plasma triglycerides
same,"α-SMA (IHC), marker of hepatic stellate cell activation",[1]; 12 wk PO QD,Numeric reductions
same,Histological steatosis score: mice improving 1-pt,[1]; [7],75%
same,Histological steatosis score: mice with no change,[1]; [7],18.75%
same,Liver fibrosis stage: mice improving,[1]; [7],6.25%
same,Liver fibrosis stage: mice with no change,[1]; [7],68.75%
same,Liver fibrosis stage: mice worsening,[1]; [7],25%
same,Lobular inflammation: mice improving,[1]; [7],12.5%
same,Lobular inflammation: mice with no change,[1]; [7],56.25%
same,Lobular inflammation: mice worsening,[1]; [7],31.25%
same,NAS: mice improving 1-pt,[1]; [7],37.5%
same,NAS: mice with no change,[1]; [7],31.25%
same,NAS: mice worsening ≥1-pt,[1]; [7],6.25%
same,Histological steatosis score: mice improving >2-pt,[1]; [8],6.25%
same,"Histological steatosis score: mice improving, Total (at least 1-pt)",[1]; [8],81% and 81.25%
same,NAS: mice improving ≥2-pt,[1]; [8],25%
same,"NAS: mice improving, Total (≥1-pt)",[1]; [8],62% and 62.5%
same,Histological steatosis score: mice improving 1-pt,[1]; [9],25%
same,Histological steatosis score: mice improving >2-pt,[1]; [9],6.25%
same,"Histological steatosis score: mice improving, Total (at least 1-pt)",[1]; [9],31% and 31.25%
same,Histological steatosis score: mice with no change,[1]; [9],68.75%
same,Liver fibrosis stage: mice improving,[1]; [9],6.25%
same,Liver fibrosis stage: mice with no change,[1]; [9],62.5%
same,Liver fibrosis stage: mice worsening,[1]; [9],31.25%
same,Lobular inflammation: mice improving,[1]; [9],6.25%
same,Lobular inflammation: mice with no change,[1]; [9],68.75%
same,Lobular inflammation: mice worsening,[1]; [9],25%
same,NAS: mice improving 1-pt,[1]; [9],31.25%
same,NAS: mice improving ≥2-pt,[1]; [9],0%
same,"NAS: mice improving, Total (≥1-pt)",[1]; [9],31% and 31.25%
same,NAS: mice with no change,[1]; [9],56.25%
same,NAS: mice worsening ≥1-pt,[1]; [9],12.5%
same,Histological steatosis score: mice improving 1-pt,[1]; [10],40%
same,Histological steatosis score: mice improving >2-pt,[1]; [10],6.7%
same,"Histological steatosis score: mice improving, Total (at least 1-pt)",[1]; [10],47% and 46.7%
same,Histological steatosis score: mice with no change,[1]; [10],53.33%
same,Liver fibrosis stage: mice improving,[1]; [10],13.33%
same,Liver fibrosis stage: mice with no change,[1]; [10],60%
same,Liver fibrosis stage: mice worsening,[1]; [10],26.7%
same,Lobular inflammation: mice improving,[1]; [10],6.7%
same,Lobular inflammation: mice with no change,[1]; [10],73.3%
same,Lobular inflammation: mice worsening,[1]; [10],20%
same,NAS: mice improving 1-pt,[1]; [10],20%
same,NAS: mice improving ≥2-pt,[1]; [10],7% and 6.7%
same,"NAS: mice improving, Total (≥1-pt)",[1]; [10],27% and 26.7%
same,NAS: mice with no change,[1]; [10],73.33%
same,NAS: mice worsening ≥1-pt,[1]; [10],0%
same,number of DEGs vs DIO-GAN vehicle control,"[1]; liver RNAseq, Compound 2-low (0.3 mg/kg)",987
same,Mean trough analyte concentration (SD),[2]; [5],143.0 (87.9) ng/mL
same,Mean trough analyte concentration (SD),[2]; [6],49.5 (42.9) ng/mL
same,Mean trough analyte concentration (SD),[2]; group Compound 2-high 10 mg/kg (16),320.0 (189.9) ng/mL
same,Mean trough analyte concentration (SD),[2]; group Compound 2-med 2 mg/kg (15),135.5 (62.0) ng/mL
